In ChEMBL document CHEMBL1146330, “Acyclic, orally bioavailable ketone-based cathepsin K inhibitors” (Bioorg Med Chem Lett, 2007):
Values after ≈ are worked out from the molar mass of the structure shown.

How the values were obtained:
Cathepsin B = Cathepsin B (Homo sapiens, UniProt P07858); experiment: Inhibition of human recombinant cathepsin B
[1] = Terminal elimination half life in iv dosed Han Wistar rat; type: ADME, organism-based; conditions: in vivo
Cathepsin K = molecular target: T1, Cathepsin K (Homo sapiens, UniProt P43235); experiment: Inhibition of human recombinant cathepsin K
T1 sequence (P43235 whole entry): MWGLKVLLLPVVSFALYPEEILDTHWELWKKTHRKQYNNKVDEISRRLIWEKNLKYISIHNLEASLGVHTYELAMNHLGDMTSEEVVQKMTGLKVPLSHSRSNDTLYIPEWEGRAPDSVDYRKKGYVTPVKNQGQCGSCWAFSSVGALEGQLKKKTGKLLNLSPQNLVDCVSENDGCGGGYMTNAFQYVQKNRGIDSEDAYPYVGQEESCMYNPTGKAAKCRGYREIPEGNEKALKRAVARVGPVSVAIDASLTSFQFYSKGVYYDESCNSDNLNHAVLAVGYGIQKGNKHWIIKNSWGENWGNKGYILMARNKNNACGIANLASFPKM

Cathepsin S = Cathepsin S (Homo sapiens, UniProt P25774); experiment: Inhibition of human recombinant cathepsin S
Chain of Cathepsin S (P25774 whole entry): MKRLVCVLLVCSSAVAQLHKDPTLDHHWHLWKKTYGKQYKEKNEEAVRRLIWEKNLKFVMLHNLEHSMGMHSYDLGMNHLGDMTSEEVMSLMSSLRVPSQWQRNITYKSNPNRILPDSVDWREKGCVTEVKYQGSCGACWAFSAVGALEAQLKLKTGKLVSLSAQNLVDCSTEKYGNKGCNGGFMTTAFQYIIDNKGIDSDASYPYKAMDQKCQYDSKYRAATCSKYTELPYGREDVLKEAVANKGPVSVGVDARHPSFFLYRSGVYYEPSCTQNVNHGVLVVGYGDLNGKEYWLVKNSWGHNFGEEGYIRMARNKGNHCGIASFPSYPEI

[2] = Inhibition of human recombinant cathepsin L
Homo sapiens = organism: Homo sapiens; experiment: Selectivity for human recombinant cathepsin K over human recombinant cathepsin L
[3] = Oral bioavailability in Han Wistar rat; type: ADME, organism-based; conditions: in vivo
[4] = Solubility in fasted state simulated intestinal fluid at pH 6.8; type: physicochemical
[5] = Volume of distribution at steady state in Han Wistar rat; type: ADME, organism-based; conditions: in vivo, read-out: Vdss
[6] = Apparent permeability across MDCK cells; type: ADME, cell-based, Canis lupus familiaris; conditions: dog
[7] = Total clearance in Han Wistar rat; type: ADME, organism-based; conditions: in vivo

SMILES | IC50 (Cathepsin B) [nM] | half-life [1] [min] | IC50 (Cathepsin K) [nM] | IC50 (Cathepsin S) [nM] | IC50 [2] [nM] | Ratio IC50 (Homo sapiens) | bioavailability [3] [%] | solubility [4] [µg/mL] | Vd [5] [L/kg] | Papp [6] [×10⁻⁶ cm/s] | clearance [7] [mL/min/kg]
CC(C)C[C@H](NC(=O)c1cc2ccccc2o1)C(=O)N[C@@H](C)C(=O)CNS(=O)(=O)c1ccccn1 | 59 | 33 | 7.5 | 20 | – | – | – | – | – | – | –
CCCC[C@H](NC(=O)O[C@H](Cn1cc(-c2ccc(C(F)(F)F)cc2)cn1)C(C)(C)C)C(=O)CNS(=O)(=O)c1ccccn1 | 72 | – | 7.6 | 26 | 7100 | > 100 | – | – | – | – | –
C[C@H](NC(=O)O[C@H](Cn1ccc(C(F)(F)F)n1)C(C)(C)C)C(=O)CNS(=O)(=O)c1ccccn1 | – | – | 300 | – | – | – | – | – | – | – | –
CC(C)(C)[C@@H](Cn1ccc(-c2ccc(C(F)(F)F)cc2)n1)OC(=O)NCC(=O)CNS(=O)(=O)c1ccccn1 | – | – | 65 | – | – | – | – | – | – | – | –
C[C@H](NC(=O)O[C@H](Cn1ccc(-c2ccc(C(F)(F)F)cc2)n1)C(C)(C)C)C(=O)CNS(=O)(=O)c1ccccn1 | 310 | 32 | 18 | 64 | > 250 | – | 27 | 97 (≈ 167 µM) | 1.8 | 30 | 82
CCCC[C@H](NC(=O)O[C@H](Cn1ccc(C(F)(F)F)n1)C(C)(C)C)C(=O)CNS(=O)(=O)c1ccccn1 | – | 24 | 32 | – | – | – | 20 | – | 0.46 | 34 | 21
CCCC[C@H](NC(=O)O[C@H](Cn1ccc(-c2ccc(C(F)(F)F)cc2)n1)C(C)(C)C)C(=O)CNC(=O)N1CCOCC1 | – | – | > 250 | – | – | – | – | – | – | – | –

These reach a lower IC50 (Cathepsin K). Values come first.

IC50 (Cathepsin B) [nM] | half-life [1] [min] | IC50 (Cathepsin K) [nM] | IC50 (Cathepsin S) [nM] | IC50 [2] [nM] | Ratio IC50 (Homo sapiens) | bioavailability [3] [%] | solubility [4] [µg/mL] | Vd [5] [L/kg] | Papp [6] [×10⁻⁶ cm/s] | clearance [7] [mL/min/kg] | SMILES
130 | 67 | 6.4 | 10 | 1100 | > 100 | 22 | 40 (≈ 64.1 µM) | 1.6 | 19 | 47 | CCCC[C@H](NC(=O)O[C@H](Cn1cnc(-c2ccc(C(F)(F)F)cc2)c1)C(C)(C)C)C(=O)CNS(=O)(=O)c1ccccn1
79 | – | 5.5 | 15 | 100 | – | – | – | – | – | – | CCCC[C@H](NC(=O)O[C@H](Cn1ccc(-c2cccnc2)n1)C(C)(C)C)C(=O)CNS(=O)(=O)c1ccccn1
170 | 120 | 4 | 35 | > 250 | – | 21 | 41 (≈ 65.7 µM) | 1.8 | 16 | 26 | CCCC[C@H](NC(=O)O[C@H](Cn1ccc(-c2ccc(C(F)(F)F)cc2)n1)C(C)(C)C)C(=O)CNS(=O)(=O)c1ccccn1
13 | 120 | 3.8 | 11 | 38 | – | 100 | 60 (≈ 108 µM) | 1.7 | 6.8 | 16 | CCCC[C@H](NC(=O)O[C@H](Cn1ccc(-c2ccncc2)n1)C(C)(C)C)C(=O)CNS(=O)(=O)c1ccccn1
40 | 46 | 3.2 | 10 | 16 | – | 32 | 28 (≈ 46.8 µM) | 1.3 | 15 | 31 | CCCC[C@H](NC(=O)O[C@H](Cn1cnc2cc(Cl)c(Cl)cc21)C(C)(C)C)C(=O)CNS(=O)(=O)c1ccccn1
68 | – | 2.1 | 19 | > 250 | > 100 | – | – | – | – | – | CCCC[C@H](NC(=O)O[C@H](Cn1ccc(-c2ccc(C(F)(F)F)cc2)n1)C(C)(C)C)C(=O)CNc1cccc(F)n1
71 | – | 1.4 | 7.9 | 38 | – | – | – | – | – | – | C[C@H](NC(=O)O[C@H](Cn1cnc2cc(Cl)c(Cl)cc21)C(C)(C)C)C(=O)CNS(=O)(=O)c1ccccn1
20 | 320 | 0.072 | 0.21 | 8.7 | – | 42 | 110 (≈ 196 µM) | 1.6 | 9.1 | – | CCCC[C@H](NC(=O)O[C@H](Cn1ccc(-c2ccc(C(F)(F)F)cc2)n1)C(C)(C)C)C(=O)C(=O)Nc1ccn[nH]1
